Assay: Antagonist activity at CCR5 in IL-10 stimulated human PBMC cells assessed as MIP-1beta induced chemotaxis

SMILES	IC50
Cc1ncnc(C)c1C(=O)N1CCC(C)(N2CCN(C3CCc4cc(C(F)(F)F)ccc43)[C@@H](C)C2)CC1 (stereo partly drawn) [4,6-Dimethyl-5-[(4-methyl-4-{(3S)-3-methyl-4-[5-(trifluoromethyl)-2,3-dihydro-1H-inden-1-yl]piperazin-1-yl}piperidin-1-yl)carbonyl]pyrimidine]	1.2 nM
Cc1ncnc(C)c1C(=O)N1CCC(C)(N2CCN(C3CCc4cc(Br)ccc43)[C@@H](C)C2)CC1 (stereo partly drawn) [5-({4-[(3S)-4-(5-Bromo-2,3-dihydro-1H-inden-1-yl)-3-methylpiperazin-1-yl]-4-methylpiperidin-1-yl}carbonyl)-4,6-dimethylpyrimidine]	1.1 nM
CO[C@@H]1Cc2cc(C(F)(F)F)ccc2[C@H]1N1CCN(C2(C)CCN(C(=O)c3c(C)ncnc3C)CC2)C[C@@H]1C [5-[(4-(3S)-4-[(1R,2R)-2-methoxy-5-(trifluoromethyl)-2,3-dihydro-1H-inden-1-yl]-3-methylpiperazin-1-yl-4-methylpiperidin-1-yl)carbonyl]-4,6-dimethylpyrimidine]	3.5 nM

From BindingDB's records for doi:10.1021/ml1001536 (2010)
